Measured values taken from PMC10687169, “Insights into the recognition mechanism in the UBR box of UBR4 for its specific substrates” (Communications Biology, 2023).
Where a SMILES comes first, the peptide text is derived from it.

Target: T1, UBR4^UBR (UBR box of Human UBR4) (Homo sapiens, UniProt Q5T4S7)
T1 construct: UBR box residues 1660-1729 (Methods; Results b12 prints 1669-1729); N-terminal 10His-MBP tag kept for ITC, cut with TEV for crystals; E. coli BL21(DE3) RIL; three zinc ions; crystal 8J9R from YIFS-UBR4 (YIFS fused at N-terminus, LC3B tag removed by ATG4B)
Experiment: ITC
Assay type: binding
Details: pH 7.5, 200 mM NaCl, 25 °C; 0.225 mM protein, 4.5 mM peptide; 10His-MBP-tagged protein

T1 sequence (Q5T4S7 1660-1729): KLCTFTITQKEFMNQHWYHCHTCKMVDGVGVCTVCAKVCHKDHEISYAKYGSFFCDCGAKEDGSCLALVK

`CC[C@H](C)[C@H](NC(=O)[C@@H](N)CCCNC(=N)N)C(=O)N[C@@H](Cc1ccccc1)C(=O)N[C@@H](CO)C(=O)O` [RIFS] (H-RIFS-OH) showed a Kd of 626 ± 29 µM.
